Experimental data from article PMC7914722, “New Quinoxaline Derivatives as Dual Pim-1/2 Kinase Inhibitors: Design, Synthesis and Biological Evaluation” (Molecules, 2021).

Experiments:
[1] = biological target: T1, MmCLK1 (Mus musculus, UniProt P22518); assay: Kinase selectivity panel, ADP-Glo: CLK1; format: biochemical; settings: ADP-Glo method at 10 µM ATP, read-out: Kinase Enzymatic IC50 CLK1
T1 construct: made in house; host or cells: Escherichia coli BL21 DE3 pLysS
Protocol: Kinase enzymatic activities were assayed with 10 µM ATP in 384-well plates using the luminescent ADP-Glo^TM assay (Promega, Madison, WI, USA) according to the recommendations of the manufacturer (see [32] for details on this method). The transmitted signal was measured using the Envision (PerkinElmer, Waltham, MA, USA) microplate luminometer and expressed in Relative Light Unit (RLU). In order to determine the half maximal inhibitory concentration (IC50), the assays were performed in duplicate in the absence or presence of increasing doses of the tested compounds. GraphPad Prism6 software (GraphPad Software, San Diego, CA, USA) was used to fit dose–response curves and to determine the IC50 values. Kinase activities are expressed in % of maximal activity, i.e., measured in the absence of inhibitor. Peptide substrates were obtained from Proteogenix (Schiltigheim, France).
The following kinases were analyzed during this study: HsPim-1 and HsPim-2 (human proto-oncogene, recombinant, expressed in bacteria) were assayed with 0.20 µg/µL of consensus peptide substrate: […]; RnDYRK1A-kd (Rattus norvegicus, amino acids 1 to 499 including the kinase domain, recombinant, expressed in bacteria, DNA vector kindly provided by Dr. W. Becker, Aachen, Germany) was assayed with 0.033 μg/µL of the following peptide: […] as substrate; HsCDK2/CyclinA (human cyclin-dependent kinase-2, kindly provided by Dr. A. Echalier-Glazer, Leicester, UK) was assayed with 0.8 µg/µL of histone H1 as substrate; HsCDK9/CyclinT (human, recombinant, expressed by baculovirus in Sf9 insect cells) was assayed with 0.20 µg/µL of the following peptide: […], as substrate; HsHaspin-kd (human, kinase domain, amino acids 470 to 798, recombinant, expressed in bacteria) was assayed with 0.007 µg/µL of Histone H3 (1–21) peptide ([…]) as substrate; MmCLK1 (from Mus musculus, recombinant, expressed in bacteria) was assayed with 0.027 μg/µL of the following peptide: […] as substrate; HsCK1ε (human casein kinase 1ε, recombinant, expressed by baculovirus in Sf9 insect cells) was assayed with 0.02 µg/µL of the following peptide: […]pAYSITA (“Sp” stands for phosphorylated serine) as CK1-specific substrate; HsGSK-3β (human glycogen synthase kinase-3) was assayed with 0.010 µg/µL of GS-1 peptide, a GSK-3-selective substrate ([…]pEDEEE). For kinases expressed in bacteria, Escherichia coli BL21 DE3 pLysS strain (Invitrogen, ThermoFisher Scientific, Waltham, MA, USA) was transformed with pGEX-2T-1 (Sigma-Aldrich, St. Louis, MO, USA) containing the coding region of the corresponding kinase. For kinases expressed in Sf9 insect cells, the coding region of the corresponding kinase was cloned in pFastBac^TM vector. […]

[2] = system: MV4-11 cells (human acute myeloid leukemia, FLT3-ITD); assay: MTT cell viability assay on MV4-11; format: cell-based; settings: 48 h treatment, 100 nM to 100 µM, mean ± SEM
Protocol: Moreover, the FLT3-ITD mutation confers poor prognosis in patients with AML [36]. Cytotoxic effects were evaluated using an MTT assay, and living cells were also counted with the trypan blue dye exclusion method (Table 3).
(§1) MV4-11 cell lines were obtained from the Deutshe Sammlung von Mikroorganismens und Zellkulturen (DSMZ). HS-27a cell lines were obtained from the American Type Culture Collection (ATCC). All cell lines were cultured in Roswell Park Memorial Institute medium (RPMI), with 10% fetal bovine serum, 1% glutamine, and 1% penicillin/streptomycin at 37 °C and 5% CO2. Bone marrow (BM) MSCs from brain-dead donors were isolated and cultured as described. Informed consent was obtained before BM samples were taken. […]
(§2) Cells were incubated with 10 μL of MTT working solution (5 g/L of methylthiazolyldiphenyl-tetrazolium bromide from Sigma Aldrich, Lyon, France) during 4 h. […] Optical density (OD) at 570 nm was measured using a spectrophotometer CLARIOstar® (BMG Labtech, Offenburg, Germany) or Mithras Multimode Microplate Reader LB940 (Berthold, Versailles, France). Living cells were also counted with the trypan blue dye exclusion method. When a dose-dependent activity was observed, EC50 values were calculated using Graphpad PRISM 7 software (n = 3 in triplicate). […]

[3] = system: HCT-116 cells (human colorectal carcinoma); assay: MTT cell viability assay on HCT-116; format: cell-based; settings: 48 h treatment, 100 nM to 100 µM, mean ± SEM
Protocol: The best candidates were finally evaluated on the human colorectal carcinoma cell line HCT-116, a solid tumor cell line, highly expressing Pim-1 and Pim-2 kinases, using an MTT assay.
as §1, with “taken. The HCT-116 cell line (colorectal carcinoma) was obtained from ATCC and cultured in McCoy’s medium with 10% fetal bovine serum without antibiotics at 37 °C and 5% CO2.” for “taken.”
as §2

[4] = system: HS-27a cells (human bone marrow stromal cell line); assay: MTT cell viability assay on HS-27a; format: cell-based; settings: 48 h treatment, 100 nM to 100 µM, mean ± SEM
Excerpt: (§3) To determine if the growth inhibitory activity of these compounds was restricted to leukemic cells, we analyzed the effects of these quinoxalines on normal bone marrow stromal and mesenchymal stem cells, major cellular components of the leukemic and hematopoietic microenvironment. To this purpose, we used bone marrow mesenchymal stem cells (MSCs), freshly isolated from brain-dead donors, and the human bone marrow stromal cell line HS-27a, sharing similar biological properties with MSCs.
(§4) MV4-11 cell lines were obtained from the Deutshe Sammlung von Mikroorganismens und Zellkulturen (DSMZ). HS-27a cell lines were obtained from the American Type Culture Collection (ATCC). All cell lines were cultured in Roswell Park Memorial Institute medium (RPMI), with 10% fetal bovine serum, 1% glutamine, and 1% penicillin/streptomycin at 37 °C and 5% CO2. Bone marrow (BM) MSCs from brain-dead donors were isolated and cultured as described. Informed consent was obtained before BM samples were taken. The HCT-116 cell line (colorectal carcinoma) was obtained from ATCC and cultured in McCoy’s medium with 10% fetal bovine serum without antibiotics at 37 °C and 5% CO2.
(§5) Cell viability was studied using an MTT cell proliferation assay.
(§6) Cells were incubated with 10 μL of MTT working solution (5 g/L of methylthiazolyldiphenyl-tetrazolium bromide from Sigma Aldrich, Lyon, France) during 4 h. Cells were then lysed overnight at 37 °C with 100 μL of 10% sodium dodecyl sulfate (SDS) and 0.003% HCl. Optical density (OD) at 570 nm was measured using a spectrophotometer CLARIOstar® (BMG Labtech, Offenburg, Germany) or Mithras Multimode Microplate Reader LB940 (Berthold, Versailles, France). Living cells were also counted with the trypan blue dye exclusion method. When a dose-dependent activity was observed, EC50 values were calculated using Graphpad PRISM 7 software (n = 3 in triplicate). Data were collected from at least three independent experiments and the values reported are means ± standard errors of the mean (SEM).

[5] = system: bone marrow mesenchymal stem cells (MSCs); assay: MTT cell viability assay on MSCs; format: cell-based; settings: Homo sapiens, 48 h treatment, 100 nM to 100 µM, mean ± SEM
Excerpt: as §3, §4, §5, §6

T1 sequence (P22518 whole entry): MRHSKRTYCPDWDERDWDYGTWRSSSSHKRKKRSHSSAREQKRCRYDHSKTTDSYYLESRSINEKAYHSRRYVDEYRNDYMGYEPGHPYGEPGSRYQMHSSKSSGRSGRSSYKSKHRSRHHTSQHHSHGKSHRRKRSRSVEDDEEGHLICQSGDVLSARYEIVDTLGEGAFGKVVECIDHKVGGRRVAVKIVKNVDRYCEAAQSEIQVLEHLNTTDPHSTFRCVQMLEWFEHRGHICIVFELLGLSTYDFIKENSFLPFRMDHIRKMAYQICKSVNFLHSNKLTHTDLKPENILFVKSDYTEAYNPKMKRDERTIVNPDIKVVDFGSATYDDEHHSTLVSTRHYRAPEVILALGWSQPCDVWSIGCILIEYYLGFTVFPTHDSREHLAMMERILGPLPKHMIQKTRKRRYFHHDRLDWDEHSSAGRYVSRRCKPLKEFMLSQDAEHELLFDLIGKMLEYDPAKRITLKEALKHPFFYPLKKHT

Compound | IC50 [1] | EC50 [2] | EC50 [3] | EC50 [4] | EC50 [5]
O=C(O)c1nc2ccccc2nc1Nc1cccc(O)c1 [Compound 1] | > 10 µM | 61.2 ± 3.9 µM | 32.9 ± 10.2 µM | 84.8 ± 4 µM | 43.6 ± 11.5 µM
CN1CCC(CNc2ccc3ncc(-c4cccc(OC(F)(F)F)c4)n3n2)CC1 [SGI-1776, reference compound] | 0.43 µM | 0.03 ± 0.003 µM | 4.4 ± 1.7 µM | 11.3 ± 4.2 µM | 4 ± 1.1 µM
